Legend:
[1] = system: human brown adipocytes (hiPSC derived BA cells); assay: PET-SCAN imaging of labelled glucose in explanted devices from mice implanted with encapsulated human brown adipocytes; format: in vivo; conditions: mice implanted with brown adipocytes and injected with FSK vs not stimulated; three weeks post-implantation
Procedure: Two groups of mice were implanted with human brown adipocytes (hiPSC derived BA cells) produced by the methods of the present invention and encapsulated in a device subcutaneously. In one group, the mice were injected with forskolin (FSK) to stimulate the brown adipocytes. In the other group, the mice implanted with brown adipocytes were not stimulated by FSK. A control group of mice was implanted with an empty device. All groups were assessed after three weeks post-implantation for in vivo PET-SCAN imaging as well as ex vivo PET-SCAN imaging of the explanted device.

[2] = system: human BA cells (hiPSC derived brown adipocytes); assay: Calorimetric/respiration measurements in mice implanted with human BA cells after NE stimulation; format: in vivo; conditions: implanted with human BA cells vs empty devices, one week post-implantation
Procedure: Measures of respiration quotient (DeltaVO2) of mice implanted with human BA cells (IBAT) or empty devices (EMPTY) treated with Norepinephrine (NE) for 1 hour. The mice are either surgically depleted for endogenous murine BA tissue (BATr) or treated at thermo-neutrality to inactivate the endogenous murine BA tissue (Therm). Calorimetric analyses were performed on group of mice implanted with encapsulated human brown adipocytes or empty devices. One group of mice was depleted of endogenous murine BA tissue by surgery and another group was maintained at thermoneutrality for inactivation of the endogenous murine BA tissue. The two groups were implanted with either human BA cells (hiPSC derived brown adipocytes) or empty devices. After one week post-implantation, each group of mice was stimulated with Norepinephrine (NE) (BA stimulation) to assess uncoupled respiration increase. The four sub-groups were analysed for calorimetry measurements as a readout of the respiration index induced by human brown adipocytes.

[3] = system: UCP1; assay: UCP1 expression analysis (qPCR), long term versus short term SB431542 exposure during BA differentiation; format: cell-based, human; conditions: continued use of SB431542 instead of removal in BAD2 medium
Procedure: UCP1 expression analysis between long term (+SB) or short term (−SB) SB431542 exposure. Long term SB exposure includes SB431542 in the medium during the entire BA differentiation beginning immediately after plating dissociated paraxial mesoderm cells. Short term SB exposure includes SB431542 in the medium during only the first 8 days beginning immediately after plating dissociated paraxial mesoderm cells. Those samples marked “+FSK” received 10 μM Forskolin for 4 hours. Day numbers are the number of days after paraxial mesoderm differentiation. All samples are relative to iPSC using 18S rRNA as the endogenous control.
(§1) Brown adipocyte (BA) differentiation was accomplished using two sequential media formulations designated BAD1 and BAD2. BAs were derived by first dissociating the PM spheres into single-cell suspension. Briefly, PM spheres were removed from the suspension plates and allowed to gravity sediment in a conical tube. The medium was aspirated carefully and the spheres gently washed once with excess DPBS without calcium or magnesium. The spheres were allowed to settle and the DPBS aspirated. The spheres were resuspended in 5 mL of RT Accumax® (Innovative Cell Technologies, San Diego, CA) and placed on a single speed rotating mixer for 20-30 minutes until a single-cell suspension was achieved. […]

[4] = system: paraxial mesoderm cells; assay: Brown adipocyte differentiation of dissociated paraxial mesoderm cells in BAD1/BAD2 medium; format: cell-based, human; conditions: SB431542 included in BAD1 medium, 2D culture of dissociated paraxial mesoderm cells
Procedure: Proceeding from monolayer of pluripotent stem cells (PSC) to spherical culture (Sph) to primitive streak (PS) to paraxial mesoderm (PM). Cells are then dissociated and cultured in 2D in specific BAD1 medium that contains TGFβ signalling inhibitor, SB431542 which is an activin inhibitor. […] In a second step, cells are cultured in BAD2 medium allowing TGFβ signalling to be active as SB431542 is removed.
as §1, with “achieved. The cells were subsequently filtered through a 100 μm filter (ThermoFisher, Waltham, MA) into a 50 mL conical tube, washed with DPBS and centrifuged at 200 g for 4 minutes at RT; the resulting supernatant was aspirated and the cells resuspended in BAD1 medium for counting using a haemocytometer.” for “achieved.”

## C=C[C@@]1(C)CC(=O)[C@]2(O)[C@@]3(C)[C@@H](O)CCC(C)(C)[C@@H]3[C@H](O)[C@H](OC(C)=O)[C@@]2(C)O1 [FSK, forskolin]
[1]
  signal of labelled glucose, PET-SCAN imaging ex vivo: increased signal of labelled glucose

## NC[C@H](O)c1ccc(O)c(O)c1 [NE, Norepinephrine]
[2]; mice at thermoneutrality
  respiration index (calorimetry): slightly but not significantly improved
[2]; mice surgically depleted of endogenous murine BA tissue
  respiration index (calorimetry): significant increased respiration index

## NC(=O)c1ccc(-c2nc(-c3ccc4c(c3)OCO4)c(-c3ccccn3)[nH]2)cc1 [SB431542]
[3]
  kinetics of differentiation and UCP1 induction and expression: retards proper kinetics and perturbs proper UCP1 induction and expression
[4]
  appearance of vascular endothelium and cardiac myocyte development from contaminating lateral plate mesoderm: reduces appearance of vascular endothelium and cardiac myocyte development

Source: patent publication US12129488B2, “Production of brown adipocytes” (SOCIETE DES PRODUITS NESTLE S.A., priority 2018, dated 2024)
